The values that follow come from article PMC4726324, “Rational steering of insulin binding specificity by intra-chain chemical crosslinking” (Scientific Reports, 2016).

For this series the following is noted: triazole bond.
Where [1] appears, read: the molecule shown is the open-chain precursor, 17-membered ring, CuSO4/ascorbic acid, H2O/tBuOH 2:1, 0.08 mM, 25.0 °C.

Read-outs that look alike come from different tables or passages of the source.

In turn, “H-Gly-Gly-Phe-Nva(δN3)-Thr-Pro-Prg-Thr-OH?” showed a ring closure, yield after HPLC under setting [1] of 36%.
Still for that read-out and setting: in the case of “H-Gly-Phe-Phe-Nva(δN3)-Thr-Pro-Prg-Thr-OH” it was 40%; in that of “H-Gly-Phe-Phe-Prg-Thr-Pro-Nva(δN3)-Thr-OH?”, 45%.
For the setting “the molecule shown is the open-chain precursor, 14-membered ring, CuSO4/ascorbic acid, H2O/tBuOH 2:1, 0.08 mM, 25.0 °C”, “H-Gly-Gly-Phe-Tyr-Nva(δN3)-Pro-Prg-Thr-OH?” showed a ring closure, yield after HPLC of 52%.
Regarding “cyclo[GB23-G-F-(NMe)A-Nva(δN3)-P-Prg-TB30]”, the ring closure, yield after HPLC (14-membered ring, Cu(I)/TBTA) came out at 49%.
With “H-Gly-Phe-Phe-Tyr-Nva(δN3)-Pro-Prg-Thr-OH?”, the ring closure, yield after HPLC (the molecule shown is the open-chain precursor, 14-membered ring, CuSO4/ascorbic acid, H2O/tBuOH 2:1, 25.0 °C) came out at 37%.
